Patent publication US4371537A, “Sulfur-substituted phenoxypyridines having antiviral activity” (The Dow Chemical Company, priority 1981, dated 1983)
≈ marks a conversion by molar mass, not a printed value. Read-outs that look alike come from different tables or passages of the source.

What was measured:
[1] = test system: rhinovirus type 1A (RV-1A); assay: Tissue culture testing, rhinovirus type 1A in HeLa cells; type: cell-based; conditions: 48 and 72 hours, NA = not active at the standard test conditions; for EC50: Enterovirus, read-out: RV-1A: lowest concentration of the compound necessary to cause a 50 percent reduction in cytopathic effect
Procedure: (§1) Monolayered HeLa cells in 16 millimeter (mm) tissue culture dishes were treated with 1 ml of culture medium (Eagles medium supplemented with fetal calf serum) containing subject compound at an appropriate concentration or containing no compound at all. Culture media such as those described herein are more fully described in standard texts, as for example, Kuchler's Biochemical Methods in Cell Culture and Virology, Dowden, Hutchinson and Ross, Inc., Stroudsberg, PA (1977). Following treatment, cells were challenged with 0.05 ml of rhinovirus type 1A (RV-1A), rhinovirus type 2 (RV-2) or Coxsackie A21 virus (Cox A21) in culture medium. Some of the compounds were also tested against rhinovirus type 5 (RV-5), rhinovirus type 8 (RV-8) or rhinovirus type 64 (RV-64). Cell controls received no viruses.
(§2) ^2 Lowest concentration of the compound (μg/ml) necessary to cause

rhinovirus type 2 (RV-2) = assay: Tissue culture testing, rhinovirus type 2 in HeLa cells; type: cell-based; conditions: 48 and 72 hours, NA = not active at the standard test conditions; for EC50: Enterovirus, read-out: RV-2: lowest concentration of the compound necessary to cause a 50 percent reduction in cytopathic effect
Procedure: as §1, §2

[2] = test system: Coxsackie A21 virus (Cox A21); assay: Tissue culture testing, Coxsackie A21 virus in HeLa cells; type: cell-based; conditions: 48 and 72 hours, NA = not active at the standard test conditions; for EC50: read-out: Cox A21: lowest concentration of the compound necessary to cause a 50 percent reduction in cytopathic effect
Procedure: as §1, §2

[3] = Cytotoxicity in tissue culture testing (HeLa monolayers); type: cell-based; conditions: human, HeLa cells
Procedure: as §1
^1 Cytotoxicity figures represent the concentration of the compound, […]

Coxsackie A21 virus = assay: Continuous Oral Feeding test in mice challenged IP with Coxsackie A21 virus; type: in vivo; conditions: for Continuous Oral Feeding: toxicity of the test compound at the indicated dosage: 0.06% in diet, "toxic" = significantly toxic at the indicated dosage; for Continuous Oral Feeding X^2 (chi-square, deaths vs control): 0.06 % in diet, 240 h
Procedure: Some of the compounds were also tested in animals utilizing the following procedure, hereainafter referred to as the "Continuous Oral Feeding" test. Coxsackie A21 virus grown on HeLa cells was administered at a concentration that produces 80 to 100% deaths in mice weighing 8 to 12 grams within 10 days, when the mice are injected (IP) with 0.2 ml of virus preparation. Mice were placed on diets containing test compound dispersed in plain commercially available rodent mash chow at a concentration of 0.06% (weight percent) on day 0. On day 1 the mice were challenged with the virus preparation, 0.2 ml/mouse, (IP). Deaths in both control and experimental groups were recorded for the 10 days and the results analyzed by a chi-square (.chi.^2) test. Chi-square values greater than 3.84 indicate the compound is active (95% confidence level).

Cox A21 = assay: Single Oral Dose test in mice challenged IP with Cox A21; type: in vivo, Swiss male mice; conditions: 600 mg/kg P.O. 3 h after IP challenge; >3.84 significant (95% confidence level)
Procedure: In addition, some of the compounds were tested in animals utilizing the following procedure, hereinafter referred to as the "Single Oral Dose" test. Swiss male mice, 8-12 grams in weight were challenged intraperitoneally (IP) with 0.2 ml of a normally lethal dose, i.e., a virus dose sufficient to cause […].80-100% mortality in infected animals within 10 days of challenge of Cox A21, in phosphate buffered saline containing 1% heat inactivated fetal calf serum. Three hours later mice were treated orally (P.O.) with 0.2 ml of compound suspended in 0.5% hydroxypropyl methylcellulose (Methocel) or with 0.2 ml of 0.5% Methocel containing no compound. […] Mice were observed daily for 7-10 days post-challenge and deaths recorded. A modified Mantel-Haenzel combined chi-square procedure was used to determine significant difference between virus control and treated groups. Chi-square values greater than 3.84 are considered significant (95% confidence level) in this test.

[4] = observed at 48 and 72 hours post-treatment, read-out: Cytotoxicity: concentration of the compound found to be toxic to the cell

EC50 (rhinovirus type 2 (RV-2))	EC50 [2]	EC50 [1]	Structure (SMILES)	RV-1A: lowest concentration of the compound necessary to cause a 50 percent reduction in cytopathic effect [1]	RV-2: lowest concentration of the compound necessary to cause a 50 percent reduction in cytopathic effect (rhinovirus type 2 (RV-2))	Cox A21: lowest concentration of the compound necessary to cause a 50 percent reduction in cytopathic effect [2]	MCC [3, 4]	Continuous Oral Feeding: toxicity of the test compound at the indicated dosage (Coxsackie A21 virus)	Continuous Oral Feeding X^2 (chi-square, deaths vs control) (Coxsackie A21 virus)	Single Oral Dose X^2 (chi-square, deaths vs virus control) (Cox A21)	MCC ([3]; GI = growth inhibition, read-out: Cytotoxicity: concentration at which the compound inhibited the growth of the tissue culture (GI))
–	–	–	CC(=O)c1ccc(Oc2cccc(S(C)(=O)=O)n2)cc1 [1-(4-((6-(methylsulfonyl)-2-pyridinyl)oxy)phenyl)ethanone]	not active	not active	not active	–	–	–	–	–
12.5 µg/mL (≈ 40.9 µM)	–	–	CC(C)(C)c1ccc(Oc2ccc(S(C)(=O)=O)cn2)cc1 [Example 33, 2-(4-(1,1-dimethylethyl)phenoxy)-5-(methylsulfonyl)pyridine]	–	–	–	> 100 µg/mL	–	4.042	–	–
12.5 µg/mL (≈ 42.9 µM)	–	25 µg/mL (≈ 85.8 µM)	CC(=O)c1ccc(Oc2ccc(S(C)(=O)=O)cn2)cc1 [Example 34, 1-(4-((5-(methylsulfonyl)-2-pyridinyl)oxy)phenyl)ethanone]	–	–	–	> 50 µg/mL	–	1.727	–	–
< 2 µg/mL	3 µg/mL (≈ 10.2 µM)	< 3 µg/mL	CSc1ccc(Oc2ccc(S(C)(=O)=O)cn2)cc1 [Example 37, 2-(4-(methylthio)phenoxy)-5-(methylsulfonyl)pyridine]	–	–	–	> 50 µg/mL	–	–	–	–
25 µg/mL (≈ 81.3 µM)	–	–	CCS(=O)(=O)c1ccc(Oc2ccc3c(c2)OCO3)nc1 [Example 41, 5-(ethylsulfonyl)-2-(3,4-methylenedioxyphenoxy)pyridine]	–	–	–	≥ 50 µg/mL	–	–	–	–
3.12 µg/mL (≈ 8.52 µM)	6.25 µg/mL (≈ 17 µM)	< 3.12 µg/mL	CCS(=O)(=O)c1ccc(Oc2cc(Cl)c(Cl)cc2Cl)nc1 [Example 48, 5-(ethylsulfonyl)-2-(2,4,5-trichlorophenoxy)pyridine]	–	–	–	> 50 µg/mL	–	–	–	–
50 µg/mL (≈ 157 µM)	25 µg/mL (≈ 78.3 µM)	50 µg/mL (≈ 157 µM)	CC(=O)c1ccc(Oc2ccc(S(=O)(=O)C(C)C)cn2)cc1 [Example 52, 1-(4-((5-((1-methylethyl)sulfonyl)-2-pyridinyl)oxy)phenyl)ethanone]	–	–	–	≥ 50 µg/mL	–	1.140	–	–
25 µg/mL (≈ 62.8 µM)	12.5 µg/mL (≈ 31.4 µM)	25 µg/mL (≈ 62.8 µM)	CCCCCCS(=O)(=O)c1ccc(Oc2ccc(Br)cc2)nc1 [Example 53, 2-(4-bromophenoxy)-5-(n-hexylsulfonyl)pyridine]	–	–	–	> 50 µg/mL	–	2.925	–	–
12.5 µg/mL (≈ 32.2 µM)	–	12.5 µg/mL (≈ 32.2 µM)	CCCCCCS(=O)(=O)c1ccc(Oc2ccc(Cl)c(Cl)c2)nc1 [Example 54, 2-(3,4-dichlorophenoxy)-5-(n-hexylsulfonyl)pyridine]	–	–	–	> 50 µg/mL	–	0.162	–	–
~12.5 µg/mL (≈ 34.8 µM)	3.12 µg/mL (≈ 8.69 µM)	~12.5 µg/mL (≈ 34.8 µM)	CC(=O)c1ccc(Oc2ccc(S(=O)(=O)C3CCCCC3)cn2)cc1 [Example 56, 1-(4-((5-(cyclohexylsulfonyl)-2-pyridinyl)oxy)phenyl)ethanone]	–	–	–	12.5 µg/mL	–	0.019	–	–
25 µg/mL (≈ 63.1 µM)	6.25 µg/mL (≈ 15.8 µM)	25 µg/mL (≈ 63.1 µM)	O=S(=O)(c1ccc(Oc2ccc(Br)cc2)nc1)C1CCCCC1 [Example 57, 2-(4-bromophenoxy)-5-(cyclohexylsulfonyl)pyridine]	–	–	–	50 µg/mL	–	–	–	–
12.5 µg/mL (≈ 32.4 µM)	25 µg/mL (≈ 64.7 µM)	25 µg/mL (≈ 64.7 µM)	O=S(=O)(c1ccc(Oc2ccc(Cl)c(Cl)c2)nc1)C1CCCCC1 [Example 58, 2-(3,4-dichlorophenoxy)-5-(cyclohexylsulfonyl)pyridine]	–	–	–	50 µg/mL	–	–	–	–
12.5 µg/mL (≈ 29.7 µM)	< 3.12 µg/mL	3.12 µg/mL (≈ 7.41 µM)	O=C(c1ccccc1)c1ccc(Oc2ccc(S(=O)(=O)C3CCCCC3)cn2)cc1 [Example 59, (4-((5-(cyclohexylsulfonyl)-2-pyridinyl)oxy)phenyl)phenylmethanone]	–	–	–	12.5 µg/mL	–	–	–	–
–	< 3.12 µg/mL	25 µg/mL (≈ 58.2 µM)	O=C(c1ccccc1)c1ccc(Oc2ccc(S(=O)(=O)Cc3ccccc3)cn2)cc1 [Example 62, phenyl(4-((5-((phenylmethyl)sulfonyl)-2-pyridinyl)oxy)phenyl)methanone]	–	–	–	–	–	0.066	–	50 µg/mL
25 µg/mL (≈ 78.6 µM)	< 3.12 µg/mL	25 µg/mL (≈ 78.6 µM)	CS(=O)(=O)c1ccnc(Oc2ccc(Cl)c(Cl)c2)c1 [Example 65, 2-(3,4-dichlorophenoxy)-4-(methylsulfonyl)pyridine]	–	–	–	50 µg/mL	–	–	–	–
12.5 µg/mL (≈ 39.3 µM)	12.5 µg/mL (≈ 39.3 µM)	12.5 µg/mL (≈ 39.3 µM)	CS(=O)(=O)c1cc(Oc2ccc(Cl)c(Cl)c2)ccn1 [Example 66, 4-(3,4-dichlorophenoxy)-2-(methylsulfonyl)pyridine]	–	–	–	25 µg/mL	–	–	–	–
25 µg/mL (≈ 76.2 µM)	–	25 µg/mL (≈ 76.2 µM)	CS(=O)(=O)c1cccc(Oc2ccc(Br)cc2)n1 [Example 70, 2-(4-bromophenoxy)-6-(methylsulfonyl)pyridine]	–	–	–	25 µg/mL	–	0.035	–	–
50 µg/mL (≈ 157 µM)	50 µg/mL (≈ 157 µM)	25 µg/mL (≈ 78.6 µM)	CS(=O)(=O)c1cccnc1Oc1ccc(Cl)c(Cl)c1 [Example 71, 2-(3,4-dichlorophenoxy)-3-(methylsulfonyl)pyridine]	–	–	–	50 µg/mL	–	–	–	–
25 µg/mL (≈ 70.7 µM)	12.5 µg/mL (≈ 35.4 µM)	25 µg/mL (≈ 70.7 µM)	CS(=O)(=O)c1cccnc1Oc1ccc(C(=O)c2ccccc2)cc1 [Example 72, (4-((3-(methylsulfonyl)-2-pyridinyl)oxy)phenyl)phenylmethanone]	–	–	–	25 µg/mL	–	–	–	–
25 µg/mL (≈ 75.3 µM)	–	25 µg/mL (≈ 75.3 µM)	CCS(=O)(=O)c1cccnc1Oc1ccc(Cl)c(Cl)c1 [Example 73, 2-(3,4-dichlorophenoxy)-3-(ethylsulfonyl)pyridine]	–	–	–	25 µg/mL	–	–	–	–
6.25 µg/mL (≈ 21.8 µM)	3.12 µg/mL (≈ 10.9 µM)	6.25 µg/mL (≈ 21.8 µM)	CSc1cncc(Oc2ccc(Cl)c(Cl)c2)c1 [Example 75, 3-(3,4-dichlorophenoxy)-5-(methylthio)pyridine]	–	–	–	6.25 µg/mL	–	–	–	–
6.25 µg/mL (≈ 20.7 µM)	25 µg/mL (≈ 82.7 µM)	12.5 µg/mL (≈ 41.4 µM)	C[S+]([O-])c1cncc(Oc2ccc(Cl)c(Cl)c2)c1 (stereo not shown) [Example 76, 3-(3,4-dichlorophenoxy)-5-(methylsulfinyl)pyridine]	–	–	–	25 µg/mL	–	–	–	–
12.5 µg/mL (≈ 39.3 µM)	3.12 µg/mL (≈ 9.82 µM)	6.25 µg/mL (≈ 19.6 µM)	CS(=O)(=O)c1cncc(Oc2ccc(Cl)c(Cl)c2)c1 [Example 77, 3-(3,4-dichlorophenoxy)-5-(methylsulfonyl)pyridine]	–	–	–	> 50 µg/mL	–	–	–	–

Structure (SMILES)	EC50 (rhinovirus type 2 (RV-2))	EC50 [2]	EC50 [1]	RV-1A: lowest concentration of the compound necessary to cause a 50 percent reduction in cytopathic effect [1]	RV-2: lowest concentration of the compound necessary to cause a 50 percent reduction in cytopathic effect (rhinovirus type 2 (RV-2))	Cox A21: lowest concentration of the compound necessary to cause a 50 percent reduction in cytopathic effect [2]	MCC [3, 4]	Continuous Oral Feeding: toxicity of the test compound at the indicated dosage (Coxsackie A21 virus)	Continuous Oral Feeding X^2 (chi-square, deaths vs control) (Coxsackie A21 virus)	Single Oral Dose X^2 (chi-square, deaths vs virus control) (Cox A21)	MCC ([3]; GI = growth inhibition, read-out: Cytotoxicity: concentration at which the compound inhibited the growth of the tissue culture (GI))
CS(=O)(=O)c1ccc(Oc2ccc(Oc3ccccc3)cc2)nc1 [Example 28, 5-(methylsulfonyl)-2-(4-phenoxyphenoxy)pyridine]	25 µg/mL (≈ 73.2 µM)	50 µg/mL (≈ 146 µM)	–	–	–	–	> 100 µg/mL	toxic	6.249	–	–
CSc1ccc(Oc2ccc(Cl)c(Cl)c2)nc1 [Example 38, 2-(3,4-dichlorophenoxy)-5-(methylthio)pyridine]	2.5 µg/mL (≈ 8.74 µM)	2.5 µg/mL (≈ 8.74 µM)	1.25 µg/mL (≈ 4.37 µM)	–	–	–	25 µg/mL	–	–	25.233	–
CS(=O)(=O)c1cccc(Oc2ccc(Cl)c(Cl)c2)n1 [Example 67, 2-(3,4-dichlorophenoxy)-6-(methylsulfonyl)pyridine]	12.5 µg/mL (≈ 39.3 µM)	~50 µg/mL (≈ 157 µM)	3.12 µg/mL (≈ 9.82 µM)	–	–	–	50 µg/mL	toxic	7.39	–	–
